Results reported in US12605358B2, “Composition for preventing or treating nervous system diseases comprising compound that inhibits mTOR signaling pathway as active ingredient” (ALIAD BIOPHARMA, priority 2021, dated 2026).

System: primary cultured hippocampal neurons
Experiment: LC3-eGFP puncta formation assay (autophagy promotion)
Type: cell-based, rat
Settings: rapamycin and HN-1703 at 0.1 μM and 0.5 μM respectively, 12 hours; FIG. 3A
Protocol: Primary neurons culture was performed from the hippocampus of rat (SD, Orient Bio) embryonic 16-day (E16) embryos. The left and right hemispheres of the extracted brain were separated using sterile tweezers under a dissecting microscope, the meninges were peeled off, the hippocampus was cut with No. 55 tweezers, and neural progenitor cells were mechanically dissolved in a Ca^2+/Mg^2+-free HBSS (Invitrogen) solution by pipetting with a pasteur pipette (Falcon, 354647). Undissolved tissues or vascular cells were settled, and then a supernatant was taken to measure the cell number and the isolated cells were seeded at 19,000 cells/cm^2 in a 35 mm culture dish coated with poly-L-ornithine (sigma, P3655) and fibronectin (sigma, F4759). The cells were cultured using a serum-free N2 medium (growth medium) added with 10 ng/mL bFGF (Invitrogen) in a 5% CO2 incubator, and the culture medium was replaced after 6 hours and after 24 hours. After 2 days, when the cells proliferated twice or more, subculture was performed.
After 3 days of the primary neural progenitor cell culture, a process of subculturing with 0.05% trypsin was repeated twice, and DNA electroporation or transfection was performed before seeding. […]
The number of cell nuclei labeled with DAPI and the number of cells expressing green fluorescence by overlapping LC3-eGFP expression and DAPI labeling were measured. The number of eGFP-LC3 puncta was measured per cell, and the signal intensity of puncta was measured using a confocal laser microscope program. […]
The autophagy promoting effect of HN-1703 in neurons differentiated by culturing hippocampal neural progenitor cells from rat embryos (E16) was evaluated by performing an LC3-eGFP puncta formation assay. The neural progenitor cells into which an LC3-eGFP recombinant gene was introduced by electroporation were differentiated into neurons, treated with rapamycin and HN-1703 at concentrations of 0.1 μM and 0.5 μM for 12 hours, respectively, and the puncta of LC3-GFP were scanned with a confocal laser microscope (Zeiss, LSM800) to measure the fluorescence intensity of LC3-eGFP and the number of puncta, and the results were illustrated in FIG. 3. Specifically, FIG. 3A illustrates confocal scanning micrographs of LC3-eGFP puncta formation after treated primary cultured hippocampal neurons overexpressing an LC3-eGFP fusion protein with HN-1703, and quantifying the number and fluorescence intensity of LC3-eGFP puncta per cell, and FIG. 3B illustrates a result of LC3-II turnover analysis.

For `COc1cc(OC)c2c(=O)c3cc4c(cc3oc2c1)OCO4` [HN-1703, 7,9-dimethoxy-10H-[1,3]dioxolo[4,5-b]xanthen-10-one], the “increase of the number of LC3-eGFP puncta compared to a control group” value was no less than 85% and the “increase of the signal intensity of LC3-eGFP puncta compared to the control group” value was no less than 45%.
